Test results as given in patent publication US7456183B2, “Guanidino compounds” (Novartis Vaccines and Diagnostics, Inc., priority 2001, dated 2008).

Target: MC4-R (Homo sapiens, UniProt P32245)
Test: cAMP Scintillation Proximity Assay in cells expressing MC4-R
Format: cell-based
Conditions: intercellular cAMP measured with SPA kit, read-out: in vitro potency (as measured by EC50 value)
Experimental: EC50 values of test compounds were determined by treating cells expressing MC4-R with test compound and lysing the cells and measuring intercellular cAMP concentration with an Amersham-Pharmacia RPA-559 cAMP Scintillation Proximity Assay (SPA) kit. The following compounds were synthesized and tested according to this assay. The following compounds are merely illustrative and should not be construed as limiting of the instant invention.

MC4-R, sequence (P32245 whole entry, species assumed): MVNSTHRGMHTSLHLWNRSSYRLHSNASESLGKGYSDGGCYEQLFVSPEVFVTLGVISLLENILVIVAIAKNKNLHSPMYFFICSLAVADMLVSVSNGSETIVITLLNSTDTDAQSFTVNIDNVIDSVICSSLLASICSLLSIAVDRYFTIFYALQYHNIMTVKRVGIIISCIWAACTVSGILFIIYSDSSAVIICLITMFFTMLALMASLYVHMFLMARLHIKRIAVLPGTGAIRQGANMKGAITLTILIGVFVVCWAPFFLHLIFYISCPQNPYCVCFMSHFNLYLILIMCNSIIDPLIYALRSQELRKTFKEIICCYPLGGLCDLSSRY

EC50: < 3 µM
SMILES: C[C@@H]1[C@@H](N=C(Nc2ccc3c(c2)CCN(CCc2ccc(Cl)cc2Cl)C3=O)N2CCN[C@@H](C)C2)C[C@H]2C[C@@H]1C2(C)C [Example 22, (3S)—N-{2-[2-(2,4-dichlorophenyl)ethyl]-1-oxo-1,2,3,4-tetrahydroisoquinolin-6-yl}-3-methyl-N′-[(1S,2S,5R)-2,6,6-trimethylbicyclo[3.1.1]hept-3-yl]piperazine-1-carboximidamide]
